Test results: patent US9051310B2, “Nicotinamide derivative or salt thereof” (FUJIFILM Corporation, priority 2011, dated 2015)

The compounds below were run against T1, glutathione S-transferase (GST)-linked full-length human Syk protein (Homo sapiens, UniProt P43405) (assay: Syk enzyme assay). Details: 0.83 nM Syk, time-resolved fluorescence; read-out: IC50 of Syk-inhibitory activity.
T1 construct: glutathione S-transferase (GST)-linked full-length human Syk protein; purchased Carna Biosciences; host or cells: Baculovirus expression system
Type: biochemical
In short: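 Phosphotyrosine on a biotin-peptide substrate (0.5 μM) was read by time-resolved fluorescence at 615 and 665 nm with Eu-anti-pTyr antibody and APC-streptavidin after 1 h EDTA stop.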

| Compound | IC50 |
| --- | --- |
| COc1ccc([C@@H](Nc2nc(Nc3ccc4ncccc4c3)c(C(N)=O)cc2F)[C@H](C)N)cc1 [Example 2-337, 6-(((1R,2S)-2-amino-1-(4-methoxyphenyl)propyl)amino)-5-fluoro-2-(quinolin-6-ylamino)nicotinamide] | 50 to 100 nM |
| CC(C)[C@@H](Nc1nc(Nc2ccc3cnn(C)c3c2)c(C(N)=O)cc1F)[C@H](C)N [Example 2-102, 6-(((2S,3R)-2-amino-4-methylpentan-3-yl)amino)-5-fluoro-2-((1-methyl-1H-indazol-6-yl)amino)nicotinamide] | 50 to 100 nM |
| COCCOc1ncc(Nc2nc(N[C@H](C3CC3)[C@H](C)N)c(F)cc2C(N)=O)cc1F [Example 2-115, 6-(((1R,2S)-2-amino-1-cyclopropylpropyl)amino)-5-fluoro-2-((5-fluoro-6-(2-methoxyethoxy)pyridin-3-yl)amino)nicotinamide] | 10 to 50 nM |
| Cc1ncc(Nc2nc(NC3[C@@H](OCc4ccccc4)CCC[C@@H]3N)c(F)cc2C(N)=O)cc1-n1nccn1 (mixture of isomers) [Example 2-484, Mixture of 6-((2-amino-6-(benzyloxy)cyclohexyl)amino)-5-fluoro-2-((6-methyl-5-(2H-1,2,3-triazol-2-yl)pyridin-3-yl)amino)nicotinamide (1S,2S,6S),(1R,2R,6R)] | 10 to 50 nM |
| C[C@H](N)[C@@H](CC1CC1)Nc1nc(Nc2ccc3nn(C)c(N(C)C)c3c2)c(C(N)=O)cc1F [Example 2-14, 6-(((2R,3S)-3-amino-1-cyclopropylbutan-2-yl)amino)-2-((3-(dimethylamino)-2-methyl-2H-indazol-5-yl)amino)-5-fluoronicotinamide] | 10 to 50 nM |
| CC[C@@H](Nc1nc(Nc2cnc(OCCOC)c(F)c2)c(C(N)=O)cc1F)[C@H](C)N [Example 2-117, 6-(((2S,3R)-2-aminopentan-3-yl)amino)-5-fluoro-2-((5-fluoro-6-(2-methoxyethoxy)pyridin-3-yl)amino)nicotinamide] | 50 to 100 nM |
| COCCOc1ncc(Nc2nc(N[C@H](CC(C)C)[C@H](C)N)c(F)cc2C(N)=O)cc1-n1nccn1 [Example 2-140, 6-(((2S,3R)-2-amino-5-methylhexan-3-yl)amino)-5-fluoro-2-((6-(2-methoxyethoxy)-5-(2H-1,2,3-triazol-2-yl)pyridin-3-yl)amino)nicotinamide] | 10 to 50 nM |
| COc1cc(Nc2nc(N[C@@H](CN)Cc3ccccc3)c(F)cc2C(N)=O)cc(OC)n1 [Example 2-418, (R)-6-((1-amino-3-phenylpropan-2-yl)amino)-2-((2,6-dimethoxypyridin-4-yl)amino)-5-fluoronicotinamide] | 10 to 50 nM |
| COCCOc1ncc(Nc2nc(N[C@H](CC(C)C)[C@H](C)N)c(F)cc2C(N)=O)cc1F [Example 2-119, 6-(((2S,3R)-2-amino-5-methylhexan-3-yl)amino)-5-fluoro-2-((5-fluoro-6-(2-methoxyethoxy)pyridin-3-yl)amino)nicotinamide] | 10 to 50 nM |
| C[C@H](N)[C@@H](CC1CC1)Nc1nc(Nc2cc(F)c3c(c2)c(N(C)C)nn3C)c(C(N)=O)cc1F [Example 2-191, 6-(((2R,3S)-3-amino-1-cyclopropylbutan-2-yl)amino)-2-((3-(dimethylamino)-7-fluoro-1-methyl-1H-indazol-5-yl)amino)-5-fluoronicotinamide] | 10 to 50 nM |
| CC[C@H](N)[C@@H](CC)Nc1nc(Nc2cnc3c(c2)c(C)nn3C)c(C(N)=O)cc1F [Example 2-248, 6-(((3R,4S)-4-aminohexan-3-yl)amino)-2-((1,3-dimethyl-1H-pyrazolo[3,4-b]pyridin-5-yl)amino)-5-fluoronicotinamide] | 50 to 100 nM |
| CC[C@@H](Nc1nc(Nc2ccc3c(c2)c(NCCOC)nn3C)c(C(N)=O)cc1F)[C@H](C)N [Example 2-463, 6-(((2S,3R)-2-aminopentan-3-yl)amino)-5-fluoro-2-((3-((2-methoxyethyl)amino)-1-methyl-1H-indazol-5-yl)amino)nicotinamide] | 10 to 50 nM |
| CC[C@H](N)[C@H](Nc1nc(Nc2cncc(F)c2)c(C(N)=O)cc1F)C1CC1 [Example 2-486, 6-(((1R,2S)-2-amino-1-cyclopropylbutyl)amino)-5-fluoro-2-((5-fluoropyridin-3-yl)amino)nicotinamide] | 10 to 50 nM |
| COc1cc(Nc2nc(N[C@H](C(C)C)[C@H](C)N)c(F)cc2C(N)=O)ccn1 [Example 2-107, 6-(((2S,3R)-2-amino-4-methylpentan-3-yl)amino)-5-fluoro-2-((2-methoxypyridin-4-yl)amino)nicotinamide] | 50 to 100 nM |
| CCn1ncc2c(Nc3nc(N[C@H](C(C)C)[C@H](C)N)c(F)cc3C(N)=O)cccc21 [Example 2-97, 6-(((2S,3R)-2-amino-4-methylpentan-3-yl)amino)-2-((1-ethyl-1H-indazol-4-yl)amino)-5-fluoronicotinamide] | 50 to 100 nM |

Results, then the compound that gave them:

| IC50 | Compound |
| --- | --- |
| 10 to 50 nM | Cc1ncc(Nc2nc(N[C@@H]3CCC(F)(F)C[C@@H]3N)c(F)cc2C(N)=O)cc1-n1nccn1 (racemic) [Example 2-564, Mixture of 6-((2-amino-4,4-difluorocyclohexyl)amino)-5-fluoro-2-((6-methyl-5-(2H-1,2,3-triazol-2-yl)pyridin-3-yl)amino)nicotinamide (1R,2S), (1S,2R)] |
| < 10 nM | CC(C)C[C@H](CN)Nc1nc(Nc2ccc3c(c2)c(N(C)C)nn3C)c(C(N)=O)cc1F [Example 2-86, (R)-6-((1-amino-4-methylpentan-2-yl)amino)-2-((3-(dimethylamino)-1-methyl-1H-indazol-5-yl)amino)-5-fluoronicotinamide] |
| 10 to 50 nM | CC(C)C[C@H](CN)Nc1nc(Nc2cnc(N3CCOCC3)c(F)c2)c(C(N)=O)cc1F [Example 2-261, (R)-6-((1-amino-4-methylpentan-2-yl)amino)-5-fluoro-2-((5-fluoro-6-morpholinopyridin-3-yl)amino)nicotinamide] |
| < 10 nM | COCCn1ncc2cc(Nc3nc(N[C@H](c4ccc(OC)cc4)[C@H](C)N)c(F)cc3C(N)=O)ccc21 [Example 2-455, 6-(((1R,2S)-2-amino-1-(4-methoxyphenyl)propyl)amino)-5-fluoro-2-((1-(2-methoxyethyl)-1H-indazol-5-yl)amino)nicotinamide] |
| 10 to 50 nM | CC[C@@H](Nc1nc(Nc2ccc3[nH]nc(NC)c3c2)c(C(N)=O)cc1F)[C@H](C)N [Example 2-489, 6-(((2S,3R)-2-aminopentan-3-yl)amino)-5-fluoro-2-((3-(methylamino)-1H-indazol-5-yl)amino)nicotinamide] |
| 10 to 50 nM | Cc1ncc(Nc2nc(N[C@H](Cc3ccccc3)[C@H](C)N)c(F)cc2C(N)=O)cc1F [Example 2-426, 6-(((2R,3S)-3-amino-1-phenylbutan-2-yl)amino)-5-fluoro-2-((5-fluoro-6-methylpyridin-3-yl)amino)nicotinamide] |
| 10 to 50 nM | CC[C@H](N)[C@@H](CC)Nc1nc(Nc2cnc3c(c2)c(OC)nn3C)c(C(N)=O)cc1F [Example 2-258, 6-(((3R,4S)-4-aminohexan-3-yl)amino)-5-fluoro-2-((3-methoxy-1-methyl-1H-pyrazolo[3,4-b]pyridin-5-yl)amino)nicotinamide] |
| < 10 nM | C[C@H](N)[C@H](Nc1nc(Nc2ccc3c(c2)c(N(C)C)nn3C)c(C(N)=O)cc1F)c1ccc(F)c(F)c1 [Example 2-553, 6-(((1R,2S)-2-amino-1-(3,4-difluorophenyl)propyl)amino)-2-((3-(dimethylamino)-1-methyl-1H-indazol-5-yl)amino)-5-fluoronicotinamide] |
| < 10 nM | COc1cc(Nc2nc(N[C@H](c3ccccc3F)[C@H](C)N)c(F)cc2C(N)=O)cc(OC)n1 [Example 2-411, 6-(((1R,2S)-2-amino-1-(2-fluorophenyl)propyl)amino)-2-((2,6-dimethoxypyridin-4-yl)amino)-5-fluoronicotinamide] |
| < 10 nM | COc1cc(Nc2nc(N[C@H](c3ccc(C(F)(F)F)cc3)[C@H](C)N)c(F)cc2C(N)=O)cc(OC)n1 [Example 2-355, 6-(((1R,2S)-2-amino-1-(4-(trifluoromethyl)phenyl)propyl)amino)-2-((2,6-dimethoxypyridin-4-yl)amino)-5-fluoronicotinamide] |
| < 10 nM | COc1nn(CC(F)F)c2ccc(Nc3nc(N[C@H](CC4CC4)[C@H](C)N)c(F)cc3C(N)=O)cc12 [Example 2-53, 6-(((2R,3S)-3-amino-1-cyclopropylbutan-2-yl)amino)-2-((1-(2,2-difluoroethyl)-3-methoxy-1H-indazol-5-yl)amino)-5-fluoronicotinamide] |
| < 10 nM | CCn1ncc2c(Nc3nc(N[C@H](c4ccccc4F)[C@H](C)N)c(F)cc3C(N)=O)cccc21 [Example 2-514, 6-(((1R,2S)-2-amino-1-(2-fluorophenyl)propyl)amino)-2-((1-ethyhl-1H-indazol-4-yl)amino)-5-fluoronicotinamide] |
| < 10 nM | CC(C)C[C@H](CN)Nc1nc(Nc2ccc3c(c2)c(OC(F)F)nn3C)c(C(N)=O)cc1F [Example 2-541, (R)-6-((1-amino-4-methylpentan-2-yl)amino)-2-((3-(difluoromethoxy)-1-methyl-1H-indazol-5-yl)amino)-5-fluoronicotinamide] |
| < 10 nM | CN(C)c1n[nH]c2ccc(Nc3nc(N[C@@H]4CCCC[C@@H]4N)c(F)cc3C(N)=O)cc12 [Example 2-492, 6-(((1R,2S)-2-aminocyclohexyl)amino)-2-((3-(dimethylamino)-1H-indazol-5-yl)amino)-5-fluoronicotinamide] |
| < 10 nM | CN(C)c1nn(C)c2ccc(Nc3nc(N[C@@H]4CCOC[C@@H]4N)c(F)cc3C(N)=O)cc12 [Example 2-212, 6-(((3R,4R)-3-aminotetrahydro-2H-pyran-4-yl)amino)-2-((3-(dimethylamino)-1-methyl-1H-indazol-5-yl)amino)-5-fluoronicotinamide] |
| < 10 nM | CC[C@H](N)[C@@H](C)Nc1nc(Nc2ccc3[nH]nc(N(C)C)c3c2)c(C(N)=O)cc1F [Example 2-495, 6-(((2R,3S)-3-aminopentan-2-yl)amino)-2-((3-(dimethylamino)-1H-indazol-5-yl)amino)-5-fluoronicotinamide] |
